Data taken from US20260285863A1, “COMPOUNDS CAPABLE OF MODULATING GPR65” (Pathios Therapeutics Limited, priority 2023, published 2026).

Target: T1, human recombinant GPR65 (Homo sapiens, UniProt Q8IYL9)
T1 construct: host or cells: 1321N1 human astrocytoma cells (1321N1-hrGPR65)
Assay: Human GPR65 cAMP HTRF antagonist assay
Assay type: cell-based
Conditions: 1321N1-hrGPR65 cells, assay pH 7.2, cAMP HTRF; read-out: hGPR65 IC50
Excerpt: The “Human GPR65 cyclic adenosine monophosphate (cAMP) Homogeneous Time Resolved Fluorescence (HTRF) antagonist assay”, or simply “cAMP assay”, as described in the accompanying examples, can be used to measure the potency of GPR65 modulators, which is expressed as the concentration of compound required to reduce the increase in cAMP concentration upon GPR65 activation by 50% (i.e. an IC50).
Human GPR65 Cyclic Adenosine Monophosphate (cAMP) Homogeneous Time Resolved Fluorescence (HTRF) Antagonist Assay Procedure
IC50data was obtained by the following procedure:
1321N1 human astrocytoma cells stably expressing human recombinant GPR65 (1321N1-hrGPR65 cells, EuroscreenFast) were cultured according to the vendor's instructions.
Compounds were tested for their ability to antagonise GPR65, through measuring the concentration of cytoplasmic cAMP following treatment of the cells at a pH of 7.2 to activate GPR65 signalling and addition of the compound to be tested. The extent to which the expected rise in cAMP concentration upon GPR65 activation was suppressed by the added compound is indicative of its potency. The assay was carried out according to EuroscreenFast assay Methodology as follows.
On the day of the assay, test compounds were added to 384-well, low volume, white microtiter plates by acoustic dispensing. KRH buffer (5 mM KCl, 1.25 mM MgSO4, 124 mM NaCl, 25 mM HEPES, 13.3 mM Glucose, 1.25 mM KH2PO4 and 1.45 mM CaCl2) was adjusted to pH 6.5, pH 7.6 and pH 8.4 by adding NaOH. 1321N1-hGPR65 cells were rapidly thawed and diluted in KRH, pH 7.6 prior to centrifugation at 300×g for 5 min and resuspension in assay buffer (KRH, pH 7.6, supplemented with 1 mM 3-isobutyl-1-methylxanthine (IBMX) and 200 μM ethylenediaminetetraacetic acid (EDTA)). Cells were added to assay plates at a density of 2,000 cells per well in a volume of […]. Assay plates were briefly centrifuged at 100×g and then incubated at room temperature for 30 min. Cells were stimulated by the addition of 5 μL KRH, pH 6.5, to achieve an assay pH of 7.2, while control wells received […] KRH, pH 8.4 to achieve an assay pH of 7.9. Assay plates were briefly centrifuged at 100×g and then incubated at room temperature for 30 min.
Accumulation of cAMP was detected by cAMP HTRF kit (Cisbio). d2-labeled cAMP and cryptate-labeled anti-cAMP antibody in Lysis and Detection Buffer (Cisbio) were added to assay plates, and the plates were incubated at room temperature for 1 h. HTRF measurements were performed using a Pherastar FSX instrument. Acceptor and donor emission signals were measured at 665 nm and 620 nm, respectively, and HTRF ratios were calculated as signal665 nm/signal620 nm×104. Data were normalised to high and low control values and fitted with 4-parameter logistic regression to determine hGPR65 IC50 values for the test compounds, which are shown in Table 1.

T1 sequence (Q8IYL9 whole entry): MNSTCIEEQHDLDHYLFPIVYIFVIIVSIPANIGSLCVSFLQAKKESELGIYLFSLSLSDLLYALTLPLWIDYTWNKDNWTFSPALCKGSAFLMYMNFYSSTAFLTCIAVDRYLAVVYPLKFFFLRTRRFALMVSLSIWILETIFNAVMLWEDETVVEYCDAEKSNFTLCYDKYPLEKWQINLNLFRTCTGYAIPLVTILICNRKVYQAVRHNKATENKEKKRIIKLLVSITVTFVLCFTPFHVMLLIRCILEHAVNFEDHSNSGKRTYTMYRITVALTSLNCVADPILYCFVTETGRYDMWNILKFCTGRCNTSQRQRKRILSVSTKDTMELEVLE

Compound | IC50
O=C(Nc1cc(Cl)c(-c2ccc(OCC3CN(CC(F)(F)F)C3)nc2)cc1F)N1[C@H]2CC[C@@H]1c1c[nH]c(=O)cc1C2 [Compound 32, (6S,9R)-N-(5-chloro-2-fluoro-4-(6-((1-(2,2,2-trifluoroethyl)azetidin-3-yl)methoxy)pyridin-3-yl)phenyl)-3-oxo-3,5,6,7,8,9-hexahydro-2H-6,9-epiminocyclohepta[c]pyridine-10-carboxamide] | < 500 nM
Cn1ncc2cc(-c3cc(F)c(NC(=O)N4[C@H]5CC[C@@H]4c4c[nH]c(=O)cc4C5)cc3Cl)ccc21 [Compound 37, (6S,9R)-N-(5-chloro-2-fluoro-4-(1-methyl-1H-indazol-5-yl)phenyl)-3-oxo-3,5,6,7,8,9-hexahydro-2H-6,9-epiminocyclohepta[c]pyridine-10-carboxamide] | < 500 nM
O=C(Nc1cc(Cl)c(-c2ccc(OCC3CC3(F)F)nc2)cc1F)N1[C@H]2CC[C@@H]1c1c[nH]c(=O)cc1C2 (stereo partly drawn) [Compound 38, (6S,9R)-N-(5-chloro-4-(6-((2,2-difluorocyclopropyl)methoxy)pyridin-3-yl)-2-fluorophenyl)-3-oxo-3,5,6,7,8,9-hexahydro-2H-6,9-epiminocyclohepta[c]pyridine-10-carboxamide] | < 500 nM
CN(CC(F)(F)F)c1ccnc(-c2cc(F)c(NC(=O)N3[C@H]4CC[C@@H]3c3c[nH]c(=O)cc3C4)cc2Cl)c1 [Compound 39, (6S,9R)-N-(5-chloro-2-fluoro-4-(4-(methyl(2,2,2-trifluoroethyl)amino)pyridin-2-yl)phenyl)-3-oxo-3,5,6,7,8,9-hexahydro-2H-6,9-epiminocyclohepta[c]pyridine-10-carboxamide] | < 500 nM
O=C(Nc1cc(Cl)c(-c2ccc(CC(F)(F)F)nc2)cc1F)N1[C@H]2CC[C@@H]1c1c[nH]c(=O)cc1C2 [Compound 40, (6S,9R)-N-(5-chloro-2-fluoro-4-(6-(2,2,2-trifluoroethyl)pyridin-3-yl)phenyl)-3-oxo-3,5,6,7,8,9-hexahydro-2H-6,9-epiminocyclohepta[c]pyridine-10-carboxamide] | < 500 nM
O=C(Nc1cc(Cl)c(-c2ccc(OCC3CCOC3)nc2)cc1F)N1[C@H]2CC[C@@H]1c1n[nH]c(=O)cc1C2 (stereo partly drawn) [Compound 41, (6S,9R)-N-(5-chloro-2-fluoro-4-(6-((tetrahydrofuran-3-yl)methoxy)pyridin-3-yl)phenyl)-3-oxo-3,5,6,7,8,9-hexahydro-2H-6,9-epiminocyclohepta[c]pyridazine-10-carboxamide] | < 500 nM
O=C(Nc1cc(Cl)c(Cl)cn1)N1[C@@H]2CC[C@H]1[C@@H](F)c1c2ccnc1F [Compound 42, (5R,8S,9S)-N-(4,5-dichloropyridin-2-yl)-1,9-difluoro-6,7,8,9-tetrahydro-5H-5,8-epiminocyclohepta[c]pyridine-10-carboxamide] | < 500 nM
CN(CC(F)(F)F)c1cc(-c2cc(F)c(NC(=O)N3[C@H]4CC[C@@H]3c3c[nH]c(=O)cc3C4)cc2Cl)ccn1 [Compound 43, (6S,9R)-N-(5-chloro-2-fluoro-4-(2-(methyl(2,2,2-trifluoroethyl)amino)pyridin-4-yl)phenyl)-3-oxo-3,5,6,7,8,9-hexahydro-2H-6,9-epiminocyclohepta[c]pyridine-10-carboxamide] | < 500 nM
O=C(Nc1cc(Cl)c(Cl)cn1)N1[C@H]2CC[C@@H]1c1ccncc1C2 [Compound 44, (5R,8S)-N-(4,5-dichloropyridin-2-yl)-6,7,8,9-tetrahydro-5H-5,8-epiminocyclohepta[c]pyridine-10-carboxamide] | < 500 nM
N#Cc1cc(NC(=O)N2[C@H]3CC[C@@H]2c2ccnc(F)c2C3)c(F)cc1Cl [Compound 45, (5R,8S)-N-(4-chloro-5-cyano-2-fluorophenyl)-1-fluoro-6,7,8,9-tetrahydro-5H-5,8-epiminocyclohepta[c]pyridine-10-carboxamide] | < 500 nM
O=C(Nc1ccc(Cl)cc1F)N1[C@H]2CC[C@@H]1c1ccnc(F)c1C2 [Compound 46, (5R,8S)-N-(4-chloro-2-fluorophenyl)-1-fluoro-6,7,8,9-tetrahydro-5H-5,8-epiminocyclohepta[c]pyridine-10-carboxamide] | < 500 nM
O=C(Nc1cc(Cl)c(Cl)cc1F)N1[C@H]2CC[C@@H]1c1ccncc1C2 [Compound 49, (5R,8S)-N-(4,5-dichloro-2-fluorophenyl)-6,7,8,9-tetrahydro-5H-5,8-epiminocyclohepta[c]pyridine-10-carboxamide] | < 500 nM
O=C(Nc1cc(Cl)c(C(F)(F)F)cc1F)N1[C@H]2CC[C@@H]1c1ccncc1C2 [Compound 50, (5R,8S)-N-(5-chloro-2-fluoro-4-(trifluoromethyl)phenyl)-6,7,8,9-tetrahydro-5H-5,8-epiminocyclohepta[c]pyridine-10-carboxamide] | < 500 nM
O=C(Nc1cc(Cl)c(COc2ccc(F)cn2)cc1F)N1[C@H]2CC[C@@H]1c1n[nH]c(=O)cc1C2 [Compound 51, (6S,9R)-N-(5-Chloro-2-fluoro-4-(((5-fluoropyridin-2-yl)oxy)methyl)phenyl)-3-oxo-3,5,6,7,8,9-hexahydro-2H-6,9-epiminocyclohepta[c]pyridazine-10-carboxamide] | < 500 nM
O=C(Nc1cc(Cl)c(COc2cccc(F)n2)cc1F)N1[C@H]2CC[C@@H]1c1n[nH]c(=O)cc1C2 [Compound 52, (6S,9R)-N-(5-Chloro-2-fluoro-4-(((6-fluoropyridin-2-yl)oxy)methyl)phenyl)-3-oxo-3,5,6,7,8,9-hexahydro-2H-6,9-epiminocyclohepta[c]pyridazine-10-carboxamide] | < 500 nM
O=C(Nc1cc(Cl)c(COc2ccccc2)cc1F)N1[C@H]2CC[C@@H]1c1c[nH]c(=O)cc1C2 [Compound 53, (6S,9R)-N-(5-chloro-2-fluoro-4-(phenoxymethyl)phenyl)-3-oxo-3,5,6,7,8,9-hexahydro-2H-6,9-epiminocyclohepta[c]pyridine-10-carboxamide] | < 500 nM
O=C(Nc1cc(Cl)c(COc2ccc(OCC(F)(F)F)cn2)cc1F)N1[C@H]2CC[C@@H]1c1c[nH]c(=O)cc1C2 [Compound 54, (6S,9R)-N-(5-chloro-2-fluoro-4-(((5-(2,2,2-trifluoroethoxy)pyridin-2-yl)oxy)methyl)phenyl)-3-oxo-3,5,6,7,8,9-hexahydro-2H-6,9-epiminocyclohepta[c]pyridine-10-carboxamide] | < 500 nM
O=C(Nc1cc(Cl)c(COc2ccc(OCC(F)(F)F)cn2)cc1F)N1[C@H]2CC[C@@H]1c1n[nH]c(=O)cc1C2 [Compound 55, (6S,9R)-N-(5-Chloro-2-fluoro-4-(((5-(2,2,2-trifluoroethoxy)pyridin-2-yl)oxy)methyl)phenyl)-3-oxo-3,5,6,7,8,9-hexahydro-2H-6,9-epiminocyclohepta[c]pyridazine-10-carboxamide] | < 500 nM
O=C(Nc1cc(Cl)c(COc2cccc(OCC(F)(F)F)n2)cc1F)N1[C@H]2CC[C@@H]1c1n[nH]c(=O)cc1C2 [Compound 56, (6S,9R)-N-(5-chloro-2-fluoro-4-(((6-(2,2,2-trifluoroethoxy)pyridin-2-yl)oxy)methyl)phenyl)-3-oxo-3,5,6,7,8,9-hexahydro-2H-6,9-epiminocyclohepta[c]pyridazine-10-carboxamide] | < 500 nM
O=C(Nc1cc(Cl)c(COc2cccc(OCC(F)(F)F)n2)cc1F)N1[C@H]2CC[C@@H]1c1c[nH]c(=O)cc1C2 [Compound 57, (6S,9R)-N-(5-chloro-2-fluoro-4-(((6-(2,2,2-trifluoroethoxy)pyridin-2-yl)oxy)methyl)phenyl)-3-oxo-3,5,6,7,8,9-hexahydro-2H-6,9-epiminocyclohepta[c]pyridine-10-carboxamide] | < 500 nM
O=C(Nc1cc(Cl)c(COc2ccc(OC3CCCC3)cn2)cc1F)N1[C@H]2CC[C@@H]1c1c[nH]c(=O)cc1C2 [Compound 58, (6S,9R)-N-(5-chloro-4-(((5-(cyclopentyloxy)pyridin-2-yl)oxy)methyl)-2-fluorophenyl)-3-oxo-3,5,6,7,8,9-hexahydro-2H-6,9-epiminocyclohepta[c]pyridine-10-carboxamide] | < 500 nM
